Source: patent publication US8426437B2, “Pyrroloquinoline derivatives and their use as protein kinases inhibitors” (Pierre Fabre Medicament, priority 2005, dated 2013)
One block for each molecule: values may come before it.

What was measured:
ALK = ALK (Homo sapiens, UniProt Q9UM73); assay: Inhibition of kinase ALK (PLCγ1-GST substrate, anti-phosphotyrosine ELISA); assay type: biochemical; conditions: ALK 180 ng/ml, 250 μM ATP, 30 minutes at 30° C.
Protocol: Incubation is carried out for 30 minutes at 30° C. with agitation.
The signal is read in luminescent mode using a luminometer.

TrkA = target: T1, TrkA (Homo sapiens, UniProt P04629); assay: Inhibition of kinase TrkA (Kinase-Glo); assay type: biochemical; conditions: TrkA 4 μg/ml, 30 μM ATP, two hours at 30° C.
T1 construct: purchased Upstate 14-571
How it was run: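 TrkA (4 μg/ml) was incubated with 1 mg/ml poly-EY and 30 μM ATP in MOPS pH 7 buffer with Mg acetate, DTT and vanadate, compounds at 10 nM–30 μM final, for 2 h at 30 °C. Remaining ATP was quantified by Kinase-Glo luminescence.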

TrkB (h) = target: T2, TrkB (h) (Homo sapiens, UniProt Q16620); assay: Upstate kinase panel: TrkB; assay type: biochemical; conditions: compound 10 μM, 10 μM ATP, read-out: % inhibition at 10 μMol
T2 construct: purchased Upstate
Protocol: (§1) These kinases are produced by Upstate and screened according to the respective protocols indicated by the supplier (http://www.upstate.com/features/kp_protocols.asp). Examples 1, 12, 166 and 238 were tested at a concentration of 20 μM, 10 μM, 1 μM and 1 μM respectively in the presence of 10 μM of ATP for examples 1 and 12 and at the concentrations of ATP shown in parentheses for examples 166 and 238. The results shown in Table VII correspond to percentage inhibition of the kinase tested in the presence of the compound, relative to a control effected without the compound.

MLCK (h) = assay: Upstate kinase panel: MLCK; assay type: biochemical, human; conditions: compound 1 μM, ATP (10)
Protocol: as §1

Rsk2 (h) = target: T3, Rsk2 (h) (Homo sapiens, UniProt P51812); assay: Upstate kinase panel: Rsk2; assay type: biochemical; conditions: compound 1 μM, ATP (10), read-out: % inhibition at 1 μMol
T3 construct: purchased Upstate
Protocol: as §1

SKNAS = assay: WST test, inhibition of proliferation of SKNAS; assay type: cell-based; conditions: Homo sapiens, SK-N-AS, 96 h; line SKNAS, tissue of origin CMS; four days of incubation, WST-1
Protocol: (§2) The inhibition of the proliferation of cell lines by certain compounds of the invention was tested. […] In the example, the lines used were derived from cancers of the uterus, central nervous system, colon, stomach, head and neck, lung, breast, pancreas, and kidney, as well as from lymphoma, myeloma, pleura, or from melanoma.
(§3) The WST test for measuring cell proliferation and viability (Roche Applied Science) is based on cleavage of a tetrazolium salt by the mitochondrial dehydrogenases in viable cells.
(§4) After four days of incubation of the compounds with the cell line, 14 μl of WST-1 reagent is added to each well and the plates are incubated for four hours at 37° in humid atmosphere at 5% CO2. The level of formazan formed is then determined by spectrophotometry at 450 nm whereas a reference is measured at 650 nm. A control with untreated cells is represented by six wells per plate and the group of treated cells is produced in triplicate for each of the concentrations measured.
(§5) The compounds are tested at five concentrations between 10 nM and 100 μM and two cytotoxic agents are used as controls: adriamycin and 5-fluorouracil.

MDA-468 = assay: WST test, inhibition of proliferation of MDA-468; assay type: cell-based; conditions: 96 h; line MDA-468, tissue of origin Breast; four days of incubation, WST-1
Protocol: as §2, §3, §4, §5

MDA-231 = assay: WST test, inhibition of proliferation of MDA-231; assay type: cell-based; conditions: Homo sapiens, MDA-MB-231, 96 h; line MDA-231, tissue of origin Breast; four days of incubation, WST-1
Protocol: as §2, §3, §4, §5

SW756 = assay: WST test, inhibition of proliferation of SW756; assay type: cell-based; conditions: Homo sapiens, 96 h; line SW756, tissue of origin Cervix; four days of incubation, WST-1
Protocol: as §2, §3, §4, §5

SKUT1B = assay: WST test, inhibition of proliferation of SKUT1B; assay type: cell-based; conditions: Homo sapiens, 96 h; line SKUT1B, tissue of origin Uterus; four days of incubation, WST-1
Protocol: as §2, §3, §4, §5

536L = assay: WST test, inhibition of proliferation of 536L; assay type: cell-based; conditions: 96 h; line 536L, tissue of origin Head/neck; four days of incubation, WST-1
Protocol: as §2, §3, §4, §5

H69 = assay: WST test, inhibition of proliferation of H69; assay type: cell-based; conditions: Homo sapiens, NCI-H69, 96 h; line H69, tissue of origin Lung (SCLC); four days of incubation, WST-1
Protocol: as §2, §3, §4, §5

RAJI = assay: WST test, inhibition of proliferation of RAJI; assay type: cell-based; conditions: Homo sapiens, 96 h; line RAJI, tissue of origin Lymphoma; four days of incubation, WST-1
Protocol: as §2, §3, §4, §5

CAPAN2 = assay: WST test, inhibition of proliferation of CAPAN2; assay type: cell-based; conditions: Homo sapiens, Capan-2, 96 h; line CAPAN2, tissue of origin Pancreas; four days of incubation, WST-1
Protocol: as §2, §3, §4, §5

1752L = assay: WST test, inhibition of proliferation of 1752L; assay type: cell-based; conditions: 96 h; line 1752L, tissue of origin Pleuromesothelium; four days of incubation, WST-1
Protocol: as §2, §3, §4, §5

A498 = assay: WST test, inhibition of proliferation of A498; assay type: cell-based; conditions: Homo sapiens, 96 h; line A498, tissue of origin Kidney; four days of incubation, WST-1
Protocol: as §2, §3, §4, §5

Met (h) = target: T4, Met (h) (Homo sapiens, UniProt P08581); assay: Upstate kinase panel: Met; assay type: biochemical; conditions: compound 20 μM, 10 μM ATP, read-out: % inhibition at 20 μMol
T4 construct: purchased Upstate
Protocol: as §1

PIM-1 (h) = target: T5, PIM-1 (h) (Homo sapiens, UniProt P11309); assay: Upstate kinase panel: PIM-1; assay type: biochemical; conditions: compound 20 μM, 10 μM ATP, read-out: % inhibition at 20 μMol
T5 construct: purchased Upstate
Protocol: as §1

RET (h) = target: T6, RET (h) (Homo sapiens, UniProt P07949); assay: Upstate kinase panel: RET; assay type: biochemical; conditions: compound 20 μM, 10 μM ATP, read-out: % inhibition at 20 μMol
T6 construct: purchased Upstate
Protocol: as §1

TrkA (h) = target: T7, TrkA (h) (Homo sapiens, UniProt P04629); assay: Upstate kinase panel: TrkA; assay type: biochemical; conditions: compound 20 μM, 10 μM ATP, read-out: % inhibition at 20 μMol
T7 construct: purchased Upstate
Protocol: as §1

T5 sequence (P11309 whole entry): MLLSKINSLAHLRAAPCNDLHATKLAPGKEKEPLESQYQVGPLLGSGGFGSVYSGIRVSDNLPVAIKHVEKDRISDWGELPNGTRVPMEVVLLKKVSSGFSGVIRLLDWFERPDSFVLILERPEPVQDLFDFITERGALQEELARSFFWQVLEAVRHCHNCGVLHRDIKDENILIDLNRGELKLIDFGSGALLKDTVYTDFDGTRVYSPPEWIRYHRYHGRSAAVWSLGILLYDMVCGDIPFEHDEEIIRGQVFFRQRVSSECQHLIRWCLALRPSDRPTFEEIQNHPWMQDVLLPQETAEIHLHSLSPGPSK
ALK, sequence (Q9UM73 19-1620, species assumed): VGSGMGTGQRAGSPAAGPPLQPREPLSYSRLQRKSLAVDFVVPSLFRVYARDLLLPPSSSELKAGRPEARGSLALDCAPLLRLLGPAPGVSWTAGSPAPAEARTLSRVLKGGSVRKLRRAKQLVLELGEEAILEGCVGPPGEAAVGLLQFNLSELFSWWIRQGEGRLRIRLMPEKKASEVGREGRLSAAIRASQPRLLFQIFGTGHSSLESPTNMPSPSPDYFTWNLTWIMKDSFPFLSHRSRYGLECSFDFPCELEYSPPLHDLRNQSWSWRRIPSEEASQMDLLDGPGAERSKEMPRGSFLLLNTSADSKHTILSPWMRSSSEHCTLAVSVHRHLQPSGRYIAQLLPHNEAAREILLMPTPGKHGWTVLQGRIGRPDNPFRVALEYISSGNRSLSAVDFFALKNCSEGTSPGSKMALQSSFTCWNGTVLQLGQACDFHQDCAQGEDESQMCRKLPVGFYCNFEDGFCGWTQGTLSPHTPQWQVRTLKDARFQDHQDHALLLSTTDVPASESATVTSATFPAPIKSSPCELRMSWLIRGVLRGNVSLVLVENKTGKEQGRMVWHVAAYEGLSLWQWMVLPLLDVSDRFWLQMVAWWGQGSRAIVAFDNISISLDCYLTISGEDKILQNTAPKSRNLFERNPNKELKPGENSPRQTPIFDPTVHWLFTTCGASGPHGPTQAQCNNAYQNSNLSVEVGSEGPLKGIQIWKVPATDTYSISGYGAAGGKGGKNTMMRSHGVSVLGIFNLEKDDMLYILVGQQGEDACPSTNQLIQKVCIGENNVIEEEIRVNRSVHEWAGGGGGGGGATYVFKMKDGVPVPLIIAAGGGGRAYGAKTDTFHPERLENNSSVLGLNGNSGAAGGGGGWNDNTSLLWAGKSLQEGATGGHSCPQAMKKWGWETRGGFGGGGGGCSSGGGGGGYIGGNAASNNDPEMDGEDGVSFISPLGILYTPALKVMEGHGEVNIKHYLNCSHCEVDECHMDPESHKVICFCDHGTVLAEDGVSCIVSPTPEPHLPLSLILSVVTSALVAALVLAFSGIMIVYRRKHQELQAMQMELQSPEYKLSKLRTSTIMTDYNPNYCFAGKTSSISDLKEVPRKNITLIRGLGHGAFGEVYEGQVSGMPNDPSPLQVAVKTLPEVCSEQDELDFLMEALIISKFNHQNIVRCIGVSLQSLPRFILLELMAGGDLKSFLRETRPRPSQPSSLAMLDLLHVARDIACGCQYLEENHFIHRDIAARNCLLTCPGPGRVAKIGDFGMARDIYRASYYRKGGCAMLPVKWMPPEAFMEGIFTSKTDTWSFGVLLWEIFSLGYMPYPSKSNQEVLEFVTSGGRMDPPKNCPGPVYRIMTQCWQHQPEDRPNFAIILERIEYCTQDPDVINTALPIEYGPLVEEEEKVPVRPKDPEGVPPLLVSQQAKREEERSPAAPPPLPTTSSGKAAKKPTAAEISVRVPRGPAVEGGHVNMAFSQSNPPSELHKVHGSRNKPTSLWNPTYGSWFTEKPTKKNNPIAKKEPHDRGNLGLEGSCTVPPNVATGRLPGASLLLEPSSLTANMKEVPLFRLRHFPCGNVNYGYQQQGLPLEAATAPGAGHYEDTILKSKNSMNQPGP
T6 sequence (P07949 29-1114): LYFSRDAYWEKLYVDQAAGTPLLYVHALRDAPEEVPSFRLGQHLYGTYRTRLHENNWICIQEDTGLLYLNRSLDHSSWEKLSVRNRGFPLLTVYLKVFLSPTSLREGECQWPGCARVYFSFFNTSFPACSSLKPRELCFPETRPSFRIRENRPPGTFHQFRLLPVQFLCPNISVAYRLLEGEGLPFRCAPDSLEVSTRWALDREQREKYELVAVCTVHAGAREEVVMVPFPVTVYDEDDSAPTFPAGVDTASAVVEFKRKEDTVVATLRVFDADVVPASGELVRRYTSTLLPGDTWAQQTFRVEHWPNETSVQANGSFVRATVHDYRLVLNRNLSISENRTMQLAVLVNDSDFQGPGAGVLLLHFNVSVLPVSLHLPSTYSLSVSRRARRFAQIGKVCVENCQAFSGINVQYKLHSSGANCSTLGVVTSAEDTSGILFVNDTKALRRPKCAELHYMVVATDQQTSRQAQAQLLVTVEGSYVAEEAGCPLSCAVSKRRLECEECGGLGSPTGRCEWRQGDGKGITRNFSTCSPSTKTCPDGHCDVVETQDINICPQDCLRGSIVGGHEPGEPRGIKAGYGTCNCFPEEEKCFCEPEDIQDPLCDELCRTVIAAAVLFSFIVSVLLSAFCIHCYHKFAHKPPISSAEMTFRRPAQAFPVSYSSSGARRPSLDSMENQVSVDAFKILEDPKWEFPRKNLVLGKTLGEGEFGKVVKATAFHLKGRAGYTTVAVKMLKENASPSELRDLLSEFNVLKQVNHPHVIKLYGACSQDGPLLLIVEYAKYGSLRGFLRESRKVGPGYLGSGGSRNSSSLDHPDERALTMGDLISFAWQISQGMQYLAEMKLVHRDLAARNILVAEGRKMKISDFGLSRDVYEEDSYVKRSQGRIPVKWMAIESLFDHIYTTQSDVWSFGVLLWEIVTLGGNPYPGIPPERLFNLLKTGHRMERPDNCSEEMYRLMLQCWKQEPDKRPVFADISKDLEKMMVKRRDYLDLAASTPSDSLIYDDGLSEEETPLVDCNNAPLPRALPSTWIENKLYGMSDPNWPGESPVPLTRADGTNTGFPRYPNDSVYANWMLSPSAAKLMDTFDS
T4 sequence (P08581 25-1390): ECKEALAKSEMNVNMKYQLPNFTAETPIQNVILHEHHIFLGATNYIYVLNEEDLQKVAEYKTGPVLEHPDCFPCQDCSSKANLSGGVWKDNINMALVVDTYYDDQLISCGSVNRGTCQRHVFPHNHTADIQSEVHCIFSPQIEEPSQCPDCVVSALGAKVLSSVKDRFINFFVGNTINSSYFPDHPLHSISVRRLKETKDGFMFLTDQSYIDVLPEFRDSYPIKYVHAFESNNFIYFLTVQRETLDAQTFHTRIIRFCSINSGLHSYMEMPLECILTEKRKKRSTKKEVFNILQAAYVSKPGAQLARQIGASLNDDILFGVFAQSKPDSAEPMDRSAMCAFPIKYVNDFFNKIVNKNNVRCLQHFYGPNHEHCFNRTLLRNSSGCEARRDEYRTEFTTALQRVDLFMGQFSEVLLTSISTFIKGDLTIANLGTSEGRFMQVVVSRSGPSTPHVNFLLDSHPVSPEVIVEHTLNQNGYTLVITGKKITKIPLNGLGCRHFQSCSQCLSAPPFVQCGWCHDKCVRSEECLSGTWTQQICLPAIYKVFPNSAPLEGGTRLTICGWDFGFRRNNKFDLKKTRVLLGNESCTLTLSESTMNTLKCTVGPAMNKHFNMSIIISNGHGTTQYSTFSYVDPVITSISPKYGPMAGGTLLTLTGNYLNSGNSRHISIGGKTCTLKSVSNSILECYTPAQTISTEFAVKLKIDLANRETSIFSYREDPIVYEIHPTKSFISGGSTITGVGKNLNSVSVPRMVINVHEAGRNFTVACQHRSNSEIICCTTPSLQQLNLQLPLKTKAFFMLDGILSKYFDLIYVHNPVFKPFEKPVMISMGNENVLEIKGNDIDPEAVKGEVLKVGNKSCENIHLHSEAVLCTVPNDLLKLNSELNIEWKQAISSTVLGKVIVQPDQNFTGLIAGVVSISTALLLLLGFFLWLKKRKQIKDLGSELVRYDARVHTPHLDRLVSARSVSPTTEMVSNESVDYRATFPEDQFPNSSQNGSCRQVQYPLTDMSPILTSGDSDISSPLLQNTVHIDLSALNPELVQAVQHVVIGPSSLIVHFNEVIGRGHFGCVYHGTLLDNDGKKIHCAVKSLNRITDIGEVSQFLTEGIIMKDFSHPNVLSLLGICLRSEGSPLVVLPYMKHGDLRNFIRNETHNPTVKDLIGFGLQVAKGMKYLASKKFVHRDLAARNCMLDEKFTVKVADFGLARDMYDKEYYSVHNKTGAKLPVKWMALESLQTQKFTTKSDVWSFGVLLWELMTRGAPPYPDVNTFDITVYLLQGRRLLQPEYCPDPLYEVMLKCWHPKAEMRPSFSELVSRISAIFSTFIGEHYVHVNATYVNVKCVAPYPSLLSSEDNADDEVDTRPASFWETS
T3 sequence (P51812 whole entry): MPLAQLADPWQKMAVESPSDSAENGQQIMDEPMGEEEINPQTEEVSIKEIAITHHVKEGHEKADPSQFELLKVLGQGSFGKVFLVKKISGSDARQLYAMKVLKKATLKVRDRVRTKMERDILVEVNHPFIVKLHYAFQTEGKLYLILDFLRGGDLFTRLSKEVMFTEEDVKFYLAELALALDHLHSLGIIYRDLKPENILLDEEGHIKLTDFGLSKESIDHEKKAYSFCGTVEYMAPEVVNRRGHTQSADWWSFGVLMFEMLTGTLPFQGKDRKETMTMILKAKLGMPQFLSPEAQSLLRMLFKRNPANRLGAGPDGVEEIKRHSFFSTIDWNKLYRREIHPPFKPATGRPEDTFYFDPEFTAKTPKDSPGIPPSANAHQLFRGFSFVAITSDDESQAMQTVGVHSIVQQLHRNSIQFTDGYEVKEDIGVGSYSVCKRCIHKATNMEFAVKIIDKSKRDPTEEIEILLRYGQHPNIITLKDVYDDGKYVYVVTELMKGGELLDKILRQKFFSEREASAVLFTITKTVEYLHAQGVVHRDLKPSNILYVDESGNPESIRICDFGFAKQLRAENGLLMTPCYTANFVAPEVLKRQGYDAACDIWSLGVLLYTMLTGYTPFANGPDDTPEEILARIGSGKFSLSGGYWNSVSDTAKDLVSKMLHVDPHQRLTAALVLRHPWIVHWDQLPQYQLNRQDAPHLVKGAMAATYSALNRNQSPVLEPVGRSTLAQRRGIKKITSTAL

IC50 (ALK): 0.1 to 1 µM | IC50 (TrkA): 1 to 10 µM | inhibition at 10 µM (TrkB (h)): 98%
SMILES: CCOC(=O)c1c[nH]c2c(=O)[nH]c3ccc(S(=O)(=O)Nc4ccc(F)cc4)cc3c12 [Compound 12, 8-(4-Fluorophenylsulfamoyl)-4-oxo-4,5-dihydro-3H-pyrrolo[2,3-c]quinoline-1-ethyl carboxylate]

% inhibition at 1 μMol (MLCK (h)): 21% | inhibition at 1 µM (Rsk2 (h)): 25% | IC50 (SKNAS): 12 µM | IC50 (SW756): 35 µM | IC50 (SKUT1B): 33 µM | IC50 (RAJI): 34 µM
SMILES: CCOC(=O)c1c[nH]c2c(=O)[nH]c3ccc(-c4cccc(S(C)(=O)=O)c4)cc3c12 [Compound 238, 8-(3-Methanesulfonyl-phenyl)-4-oxo-4,5-dihydro-3H-pyrrolo[2,3-c]quinoline-1-ethyl carboxylate]
IC50 (MDA-468): 38 µM | IC50 (MDA-231): 41 µM | IC50 (536L): 36 µM | IC50 (H69): 0.5 µM | IC50 (CAPAN2): 47 µM | IC50 (1752L): 35 µM | IC50 (A498): 49 µM

inhibition at 20 µM (Met (h)): 52% | inhibition at 20 µM (PIM-1 (h)): 92% | inhibition at 20 µM (RET (h)): 99% | inhibition at 20 µM (TrkA (h)): 97%
SMILES: CCOC(=O)c1c[nH]c2c(=O)[nH]c3ccccc3c12 [Compound 1, 4-Oxo-4,5-dihydro-3H-pyrrolo[2,3-c]quinoline-1-ethyl carboxylate]
